Laboratory results taken from patent publication US11452712B2, “Methods and compositions involving (S)-bucindolol” (ARCA BIOPHARMA, INC., priority 2008, dated 2022).

Key:
[1] = cited from earlier work
[2] = biological target: T1, β1AR Arg/Arg (Homo sapiens, UniProt P08588, G389R); assay: Force development in isolated failing human right ventricular trabeculae, β1AR Arg/Arg; assay type: cell-based
T1 construct: isolated failing human right ventricular trabeculae; from tissue; host or cells: isolated failing human right ventricular trabeculae, β1AR Arg/Arg genotype

[3] = system: Human umbilical vein endothelial cells; assay: CaI-stimulated NO release in HUVECs (electrochemical nanosensor); assay type: cell-based; conditions: 1.0 μM drug, 6 hr pretreatment; for NO release: 1.0 μM CaI stimulation, mean±S.D.; for increase in NO release: versus control
Description: (§1) Human umbilical vein endothelial cells were isolated into primary cultures from healthy female donors by Clonetics (San Diego, Calif.) and purchased as proliferating cells. All cell culture donors were healthy, with no pregnancy or prenatal complications. None of the donors took any drugs regularly and all were nonsmokers and consumed regular caloric/content diet. The cultured cells were incubated in 95% air/5% CO2 at 37° C. and passage by an enzymatic (trypsin) procedure. The confluent cells (4 to 5×10^5 cells per 35-mm dish) were placed with minimum essential medium containing 3 mM L-arginine and 0.1 mM (6R)-5,6,7,8-tetrahydrobiopterin (BH4). Before the experiments, the cells (from second or third passage) were rinsed twice with Tyrode-HEPES buffer with 1.8 mM CaCl2. Bucindolol and its enanatiomers were obtained from Arca Discovery (Denver, Colo.).
(§2) Measurement of NO was carried out with electrochemical nanosensors (FIG. 1). Their design was based on previously developed and well-characterized chemically modified carbon-fiber technology (Lvovich and Scheeline, 1997; Malinski and Taha, 1992). Each of the nanosensors was constructed by depositing a sensing material on the tip of a carbon fiber (length 4-5 μm, diameter 0.2-0.5 μm). The fibers were sealed with nonconductive epoxy and electrically connected to copper wires with conductive silver epoxy. The inventors used a conductive film of polymeric nickel (II) tetrakis (3-methoxy-4-hydroxyphenyl) porphyrin for the NO-sensor.
The NO nanosensors (diameter 1-2 μm) with a platinum wire (0.1 mm) counter electrode and saturated calomel reference electrode (SCE) were applied. Differential pulse voltammetry (DPV) and amperometry were performed with a computer-based Gamry VFP600 multichannel potentiostat. DPV was used to measure the basal NO concentrations, and amperometry was used to measure changes in NO concentrations from its basal level with time. The DPV current at the peak potential characteristic for NO oxidation (0.65 V) […] was directly proportional to the local concentrations of these compounds in the immediate vicinity of the sensor. Linear calibration curves (current vs. concentration) were constructed for each sensor from 10 nM to 3 μM before and after measurements with aliquots of NO standard solutions, respectively. The detection limit of the sensors was 1.0 nM.
(§3) The quantification of each analyte (concentration in nmol/L) was performed using a maximum current from amperograms and standard calibration curves. The reproducibility of measurements with nanosensors is relatively high, as previously described (Lvovich and Scheeline, 1997; Malinski and Taha, 1992). […] The sensors were slowly raised 5±2 μm from the surface of a single endothelial cell.
(§4) The HUVEC preparation is stable over the course of these experiments with the cells remaining viable and active responses to NO stimulation in culture for >24 hours. For robust statistical analysis, randomly selected cells were used for each concentration and type of drug used in these analyses.

[4] = system: Human umbilical vein endothelial cells; assay: CaI-stimulated NO/ONOO− release ratio in HUVECs; assay type: cell-based; conditions: for increase in NO/ONOO− ratio: 1.0 μM drug; for favorable effect on endothelial function as compared to bucindolol racemate: NO and ONOO− release, HUVECs
Description: as §1, §2, §3
The most comprehensive measurement of endothelial function is the ratio of NO to
ONOO^− following treatment with these agents. […] The basis for these differences is not understood but may be due to genetic variability in the eNOS protein. Bucindolol racemate (1.0 μM) increased the NO/ONOO^− ratio in white donors (49%), Mexican American donors (23%), and African American donors (38%) as shown in FIGS. 11-13. […] Again, the favorable effects of bucindolol and its enanatiomers were much more apparent at the higher dose (10.0 μM) by at least two fold. The effect at the high concentration was especially evident in higher risks populations (African Americans, Mexican Americans).

[5] = biological target: T2, β1AR Gly carrier (Homo sapiens, UniProt P08588); assay: Force development in isolated failing human right ventricular trabeculae, β1AR Gly carrier; assay type: cell-based
T2 construct: isolated failing human right ventricular trabeculae; from tissue; host or cells: isolated failing human right ventricular trabeculae, β1AR 389 Gly carrier genotypes

[6] = system: Human umbilical vein endothelial cells; assay: CaI-stimulated ONOO− release in HUVECs (nanosensor); assay type: cell-based; conditions: 1.0 μM drug; for ONOO− levels: CaI stimulation, mean±S.D.; for reduction of ONOO− levels: versus control
Text: FIG. 1. Schematic diagram of a NO nanosensor placed in close proximity to the surface of a single endothelial cell. The nanosensor measures the levels of NO, O2^−, and ONOO^− from the intact endothelium in real time. The sensors are made by depositing a sensing material on the tip of carbon fiber with a diameter of about 0.5 μm. The fibers are sealed with nonconductive epoxy and electrically connected to wires (gold, copper) with conductive silver epoxy.
as §1, §3, §4

[7] = biological target: T3, β1 389 Gly/Gly receptor (Homo sapiens, UniProt P08588); assay: Competition binding in human LV membranes, β1 389 Gly/Gly; conditions: 83% β1 AR, genotype 389 Gly/Gly
T3 construct: human LV membranes that are 83% β1; AR and genotypically 389 Gly/Gly; from tissue; host or cells: human left ventricular membranes, one patient, genotype 389 Gly/Gly
Description: (§5) FIG. 14A, 14B. 14A—Competition curve between S- or R-bucindolol in human LV membranes that are 86% β1. AR and genotypically 389 Arg/Arg. The respective Kis are 0.49 nM and 14.0 nM for the S- and R-isomers. 14B—Competition curve between S- or R-bucindolol in human LV membranes that are 83% β1. AR and genotypically 389 Gly/Gly. The respective Kis are 0.59 nM and 26.3 nM for the S- and R-isomers.
(§6) FIG. 14 gives the binding of S- and R-bucindolol in left ventricular membranes prepared from one patient who had the β1 389 Arg/Arg receptor (FIG. 14A), and another with the Gly/Gly (FIG. 14B) genotype. As can be observed, the S-isomer has much higher affinity, in both genotypes. In addition, the Kis are similar for both the S- (0.5-0.6 nM) and R- (around 14-26 nM) isomers in the Arg/Arg and Gly/Gly preparations. Similar results were obtained in the presence of Gpp(NH)p.

[8] = biological target: T4, β1 389 Arg/Arg receptor (Homo sapiens, UniProt P08588, G389R); assay: Competition binding in human LV membranes, β1 389 Arg/Arg
T4 construct: left ventricular membranes prepared from one patient who had the β1 389 Arg/Arg receptor; from tissue; host or cells: human left ventricular membranes, one patient, genotype 389 Arg/Arg
Description: as §5, §6

[9] = human LV membranes, 86% β1 AR, genotype 389 Arg/Arg
[10] = span over the Arg/Arg and Gly/Gly preparations

T4 sequence (P08588 whole entry G389R): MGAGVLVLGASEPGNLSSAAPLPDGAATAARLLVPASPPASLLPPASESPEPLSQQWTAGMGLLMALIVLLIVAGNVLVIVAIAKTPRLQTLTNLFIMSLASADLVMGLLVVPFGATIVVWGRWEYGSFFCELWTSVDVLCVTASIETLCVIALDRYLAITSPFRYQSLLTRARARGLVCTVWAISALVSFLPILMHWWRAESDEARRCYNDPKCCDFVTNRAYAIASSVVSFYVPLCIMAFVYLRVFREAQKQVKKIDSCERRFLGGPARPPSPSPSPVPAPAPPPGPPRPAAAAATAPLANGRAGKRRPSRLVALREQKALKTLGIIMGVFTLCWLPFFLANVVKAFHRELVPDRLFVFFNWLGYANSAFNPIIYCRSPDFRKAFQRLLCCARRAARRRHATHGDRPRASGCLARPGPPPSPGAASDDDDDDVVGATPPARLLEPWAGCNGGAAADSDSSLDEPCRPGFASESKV
T3 sequence (P08588 whole entry): as the sequence (P08588 whole entry G389R) above, with R389G counted along it
T2 sequence (P08588 whole entry): as the sequence (P08588 whole entry G389R) above, with R389G counted along it
T1 sequence (P08588 whole entry G389R): as the sequence (P08588 whole entry G389R) above

Row | SMILES | NO release ([3]; African American donors) | increase in NO release ([3]; African American donors) | NO release ([3]; Mexican American donors) | increase in NO release ([3]; Mexican American donors) | NO release ([3]; non-Hispanic white donors) | increase in NO release ([3]; non-Hispanic white donors) | ONOO− levels ([6]; African American donors) | reduction of ONOO− levels ([6]; African American donors) | ONOO− levels ([6]; Mexican American donors) | reduction of ONOO− levels ([6]; Mexican American donors) | ONOO− levels ([6]; non-Hispanic white donors) | reduction of ONOO− levels ([6]; non-Hispanic white donors) | favorable effect on endothelial function as compared to bucindolol racemate [4] | Ki [7] | Ki [8, 9] | Ki [8, 10] | further results
1 | CC(C)(Cc1c[nH]c2ccccc12)NCC(O)COc1ccccc1C#N (racemic) [bucindolol, 2-(3-(1-(1H-indol-3-yl)-2-methylpropan-2-ylamino)-2-hydroxypropoxy)benzonitrile] | 306 ± 25 nM | 22% | 321 ± 28 nM | 5% | 475 ± 27 nM | 16% | 378 ± 30 nM | 12% | 422 ± 27 nM | 14% | 244 ± 29 nM | 19% |  |  |  |  | hazard ratio for the primary endpoint of all-cause mortality ([1]; advanced heart failure, at premature stop of trial, C.I.s 0.78-1.02): 0.90; mortality versus placebo (in words) ([1]; at early termination of BEST): no significant difference in mortality; reduction of mortality or heart failure hospitalization ([1]; entire BEST cohort, p<0.0001): 19%; functional behaviour at the receptor (force development) ([2]; high signal transduction, adenylyl cyclase activated by forskolin): inverse agonist; functional behaviour at the receptor (force development) ([2]; low levels of signal transduction (low receptor activation)): neutral antagonist; increase in NO/ONOO− ratio ([4]; African American donors): 38%; increase in NO/ONOO− ratio ([4]; Mexican American donors): 23%; increase in NO/ONOO− ratio ([4]; white donors): 49%; functional behaviour at the receptor (force development) ([5]; in the presence of forskolin): neutral antagonist; functional behaviour at the receptor (force development) ([5]; low activation states): inverse agonist
2 | CC(C)(Cc1c[nH]c2ccccc12)NCC(O)COc1ccccc1C#N (single isomer, unassigned) [(R)-bucindolol] |  |  |  |  |  |  |  |  |  |  |  |  | less activity | 26.3 nM | 14 nM | 14 to 26 nM | 
3 | CC(C)(Cc1c[nH]c2ccccc12)NCC(O)COc1ccccc1C#N (single isomer, unassigned) [(S)-bucindolol] | 318 ± 16 nM | 27% | 358 ± 32 nM | 17% | 553 ± 35 nM | 35% | 352 ± 26 nM | 18% | 419 ± 34 nM | 15% | 240 ± 24 nM | 23% | more pronounced | 0.59 nM | 0.49 nM | 0.5 to 0.6 nM | 
4 | CC(C)NCC(O)COc1ccc(CC(N)=O)cc1 (stereo not shown) [atenolol] |  |  |  |  |  |  |  |  |  |  |  |  |  |  |  |  | effect on NO/ONOO− ratio (in words) ([4]; 1.0 and 10.0 μM, three donor groups): failed to produce an effect
